Experimental data from the supplement of paper PMC4862054.

Columns and labels:
Experiment in all cases: normalised viability (% of control), CellTiter-Blue; higher = more viable cells (about 100 = DMSO control)
Conditions in all cases: incubation time: 72 h
[1] = tested on: BT-474
Experimental: (§1)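 DSRT, CellTiter-Blue viability, 72 h incubation. Signal is normalised to DMSO and benzethonium chloride controls. Value is the normalised response at dose 3.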

[2] = tested on: BT-549
Experimental: as §1

[3] = tested on: CAL-148
Experimental: as §1

[4] = tested on: CAL-85-1
Experimental: as §1

[5] = tested on: DU-4475
Experimental: as §1

[6] = tested on: HCC1143
Experimental: as §1

[7] = tested on: HCC1937
Experimental: as §1

[8] = tested on: HDQ-P1
Experimental: as §1

[9] = tested on: MDA-MB-468
Experimental: as §1

[10] = tested on: SK-BR-3
Experimental: as §1

[11] = tested on: BT-474; remark: listed apart in the source
In short: (§2)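 Each entry is normalised viability at a single listed concentration within a series. It comes from breast cancer cell lines incubated 72 h with compound in 384-well plates, then measured with CellTiter-Blue fluorescence at 560/590 nm. Every plate was normalised between vehicle (100) and a positive kill control (0).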

[12] = tested on: BT-549; remark: listed apart in the source
In short: as §2

[13] = tested on: CAL-120
In short: as §2

[14] = tested on: CAL-51
In short: as §2

[15] = tested on: CAL-85-1; remark: listed apart in the source
In short: as §2

[16] = tested on: DU-4475; remark: listed apart in the source
In short: as §2

[17] = tested on: HCC1143; remark: listed apart in the source
In short: as §2

[18] = tested on: HCC1599
In short: as §2

[19] = tested on: HCC1937; remark: listed apart in the source
In short: as §2

[20] = tested on: HDQ-P1; remark: listed apart in the source
In short: as §2

[21] = tested on: Hs578T
In short: as §2

[22] = tested on: MDA-MB-231
In short: as §2

[23] = tested on: MDA-MB-436
In short: as §2

[24] = tested on: MDA-MB-453
In short: as §2

[25] = tested on: MDA-MB-468; remark: listed apart in the source
In short: as §2

[26] = tested on: MFM-223
In short: as §2

[27] = tested on: SK-BR-3; remark: listed apart in the source
In short: as §2

[28] = tested on: CAL-148; remark: listed apart in the source
Experimental: (§3)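 DSRT, CellTiter-Blue viability, 72 h incubation. Signal is normalised to DMSO and benzethonium chloride controls. Value is the normalised response at dose 6.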

[29] = tested on: CAL-51; remark: listed apart in the source
Experimental: as §3

[30] = tested on: CAL-85-1; remark: listed apart in the source
Experimental: as §3

[31] = tested on: DU-4475; remark: listed apart in the source
Experimental: as §3

[32] = tested on: HDQ-P1; remark: listed apart in the source
Experimental: as §3

[33] = tested on: MDA-MB-453; remark: listed apart in the source
Experimental: as §3

CC[C@]1(O)C[C@H]2CN(CCc3c([nH]c4ccccc34)[C@@](C(=O)OC)(c3cc4c(cc3OC)N(C=O)[C@H]3[C@@](O)(C(=O)OC)[C@H](OC(C)=O)[C@]5(CC)C=CCN6CC[C@]43[C@@H]65)C2)C1 [Vincristine]
Conditions | normalised viability [%]
[1], 10 nM | 46.2
[1], 100 nM | 57.2
[2], 10 nM | 29.3
[2], 100 nM | 25.2
[3], 1 nM | 91.3
[3], 10 nM | 90.2
[4], 1 nM | 96.5
[4], 10 nM | 61.1
[5], 1 nM | 102
[5], 10 nM | 78.8
[6], 10 nM | 34.2
[6], 100 nM | 40.4
[7], 10 nM | 33.6
[7], 100 nM | 17.8
[8], 1 nM | 109
[8], 10 nM | 90.7
[9], 10 nM | 50.6
[9], 100 nM | 32.1
[10], 10 nM | 15.6
[10], 100 nM | 15.8
[11], 100 nM | 52
[11], 1000 nM | 50.6
[12], 100 nM | 22.3
[12], 1000 nM | 16.2
[13], 100 nM | 19.3
[13], 1000 nM | 19.2
[14], 3 nM | 99
[14], 30 nM | 72.1
[15], 3 nM | 89.9
[15], 30 nM | 33
[16], 3 nM | 94.7
[16], 30 nM | 48.9
[17], 100 nM | 38.8
[17], 1000 nM | 35.8
[18], 100 nM | 59.3
[18], 1000 nM | 48
[19], 100 nM | 13.8
[19], 1000 nM | 15.1
[20], 3 nM | 91.3
[20], 30 nM | 58.7
[21], 100 nM | 17.7
[21], 1000 nM | 16.8
[22], 100 nM | 15.5
[22], 1000 nM | 14.3
[23], 100 nM | 35.4
[23], 1000 nM | 39.5
[24], 3 nM | 92.1
[24], 30 nM | 22.6
[25], 100 nM | 33.4
[25], 1000 nM | 33.2
[26], 100 nM | 40.2
[26], 1000 nM | 28.1
[27], 100 nM | 17.1
[27], 1000 nM | 17.2
[28], 30 nM | 16.5
[28], 300 nM | 24.5
[29], 30 nM | 42.3
[29], 300 nM | 12.6
[30], 30 nM | 34.9
[30], 300 nM | 39.6
[31], 30 nM | 36.9
[31], 300 nM | 12
[32], 30 nM | 33.5
[32], 300 nM | 27.9
[33], 30 nM | 29.2
[33], 300 nM | 34.2

COc1ccc(-c2ccc3c(N4CCOC[C@@H]4C)nc(N4CCOC[C@@H]4C)nc3n2)cc1CO [AZD8055]
Conditions | normalised viability [%]
[1], 100 nM | 52.2
[2], 100 nM | 44.3
[3], 10 nM | 80.9
[4], 10 nM | 79.8
[5], 10 nM | 102
[6], 100 nM | 55.8
[7], 100 nM | 42.6
[8], 10 nM | 76.8
[9], 100 nM | 70
[10], 100 nM | 23.6
[11], 1000 nM | 26.9
[12], 1000 nM | 18.7
[13], 1000 nM | 13.9
[14], 30 nM | 47.5
[15], 30 nM | 56.9
[16], 30 nM | 75.8
[17], 1000 nM | 32.5
[18], 1000 nM | 46.4
[19], 1000 nM | 32.6
[20], 30 nM | 53.1
[21], 1000 nM | 23.7
[22], 1000 nM | 23.9
[23], 1000 nM | 32.5
[24], 30 nM | 33.6
[25], 1000 nM | 29.1
[26], 1000 nM | 18
[27], 1000 nM | 13
[28], 300 nM | 10.4
[29], 300 nM | 16.9
[30], 300 nM | 28.8
[31], 300 nM | 29.8
[32], 300 nM | 26.9
[33], 300 nM | 15.7
